Experimental data as given in patent publication US10246453B2, “Benzenesulfonamide compounds and their use as therapeutic agents” (Xenon Pharmaceuticals Inc., priority 2016, dated 2019).
Where a name gives a salt, the structure may show the parent alone. Read-outs that look alike come from different tables or passages of the source.

Columns and labels:
NaV1.1 [1] = target: T1, NaV1.1 (Homo sapiens (Human), UniProt P35498); assay: Sodium Influx Assay (Flux), NaV1.1; format: cell-based; settings: Trex HEK293 cells, ANG2 dye; arithmetic mean
NaV1.6 [2] = target: T2, NaV1.6 (Homo sapiens (Human), UniProt Q9UQD0); assay: Sodium Influx Assay (Flux), NaV1.6
NaV1.5 [3] = target: T3, NaV1.5 (Homo sapiens (Human), UniProt Q14524)
NaV1.1 [4] = target: T1, NaV1.1; assay: Electrophysiological Assay (EP), patch voltage clamp, NaV1.1; format: cell-based; settings: HEK-293 cells, whole-cell patch clamp, inactivated state; arithmetic mean
NaV1.6 [5] = target: T2, NaV1.6; assay: Electrophysiological Assay (EP), patch voltage clamp, NaV1.6; format: cell-based; settings: HEK-293 cells, whole-cell patch clamp, inactivated state; arithmetic mean
NaV1.5 [6] = target: T3, NaV1.5; assay: cell-based
NaV1.5 [7] = target: T3, NaV1.5; assay: in vitro; settings: pH 7.4
NaV1.5 [8] = target: T3, NaV1.5; assay: Electrophysiological Assay (EP), patch voltage clamp, NaV1.5; format: cell-based; settings: HEK-293 cells, whole-cell patch clamp, inactivated state; arithmetic mean
Experimental: Sodium currents were measured using the patch clamp technique in the whole-cell configuration using either a PatchXpress automated voltage clamp or manually using an Axopatch 200B (Axon Instruments) or Model 2400 (A-M systems) amplifier.
In some studies, the external sodium was reduced by equimolar replacement with choline. […] All recordings were performed at ambient temperature in a bath chamber with a volume of 150 μL. Control sodium currents were measured in 0.5% DMSO. Controls and representative compounds of the invention were applied to the recording chamber through a 4-pinch or 8-pinch valve bath perfusion system manufactured by ALA Scientific Instruments.
Series resistance compensation was applied (60-80%). […] All statistics in this study are given as mean±SD.
The membrane potential was maintained at a voltage where inactivation of the channel is complete. The voltage is then stepped back to a very negative (Vhold=−150 mV) voltage for 20 ms and then a test pulse is applied to quantify the compound block. […] The percent decrease in sodium current following wash-on of compound was taken as the percent block of sodium channels.

NaV1.5 [9] = target: T3, NaV1.5; assay: Sodium Influx Assay (Flux), NaV1.5; settings: read-out: Flux NaV1.5 IC50; Trex HEK293 cells, ANG2 dye; arithmetic mean
[10] = read-out: Flux NaV1.6 IC50, Trex HEK293 cells, ANG2 dye, arithmetic mean

T2 sequence (Q9UQD0 whole entry): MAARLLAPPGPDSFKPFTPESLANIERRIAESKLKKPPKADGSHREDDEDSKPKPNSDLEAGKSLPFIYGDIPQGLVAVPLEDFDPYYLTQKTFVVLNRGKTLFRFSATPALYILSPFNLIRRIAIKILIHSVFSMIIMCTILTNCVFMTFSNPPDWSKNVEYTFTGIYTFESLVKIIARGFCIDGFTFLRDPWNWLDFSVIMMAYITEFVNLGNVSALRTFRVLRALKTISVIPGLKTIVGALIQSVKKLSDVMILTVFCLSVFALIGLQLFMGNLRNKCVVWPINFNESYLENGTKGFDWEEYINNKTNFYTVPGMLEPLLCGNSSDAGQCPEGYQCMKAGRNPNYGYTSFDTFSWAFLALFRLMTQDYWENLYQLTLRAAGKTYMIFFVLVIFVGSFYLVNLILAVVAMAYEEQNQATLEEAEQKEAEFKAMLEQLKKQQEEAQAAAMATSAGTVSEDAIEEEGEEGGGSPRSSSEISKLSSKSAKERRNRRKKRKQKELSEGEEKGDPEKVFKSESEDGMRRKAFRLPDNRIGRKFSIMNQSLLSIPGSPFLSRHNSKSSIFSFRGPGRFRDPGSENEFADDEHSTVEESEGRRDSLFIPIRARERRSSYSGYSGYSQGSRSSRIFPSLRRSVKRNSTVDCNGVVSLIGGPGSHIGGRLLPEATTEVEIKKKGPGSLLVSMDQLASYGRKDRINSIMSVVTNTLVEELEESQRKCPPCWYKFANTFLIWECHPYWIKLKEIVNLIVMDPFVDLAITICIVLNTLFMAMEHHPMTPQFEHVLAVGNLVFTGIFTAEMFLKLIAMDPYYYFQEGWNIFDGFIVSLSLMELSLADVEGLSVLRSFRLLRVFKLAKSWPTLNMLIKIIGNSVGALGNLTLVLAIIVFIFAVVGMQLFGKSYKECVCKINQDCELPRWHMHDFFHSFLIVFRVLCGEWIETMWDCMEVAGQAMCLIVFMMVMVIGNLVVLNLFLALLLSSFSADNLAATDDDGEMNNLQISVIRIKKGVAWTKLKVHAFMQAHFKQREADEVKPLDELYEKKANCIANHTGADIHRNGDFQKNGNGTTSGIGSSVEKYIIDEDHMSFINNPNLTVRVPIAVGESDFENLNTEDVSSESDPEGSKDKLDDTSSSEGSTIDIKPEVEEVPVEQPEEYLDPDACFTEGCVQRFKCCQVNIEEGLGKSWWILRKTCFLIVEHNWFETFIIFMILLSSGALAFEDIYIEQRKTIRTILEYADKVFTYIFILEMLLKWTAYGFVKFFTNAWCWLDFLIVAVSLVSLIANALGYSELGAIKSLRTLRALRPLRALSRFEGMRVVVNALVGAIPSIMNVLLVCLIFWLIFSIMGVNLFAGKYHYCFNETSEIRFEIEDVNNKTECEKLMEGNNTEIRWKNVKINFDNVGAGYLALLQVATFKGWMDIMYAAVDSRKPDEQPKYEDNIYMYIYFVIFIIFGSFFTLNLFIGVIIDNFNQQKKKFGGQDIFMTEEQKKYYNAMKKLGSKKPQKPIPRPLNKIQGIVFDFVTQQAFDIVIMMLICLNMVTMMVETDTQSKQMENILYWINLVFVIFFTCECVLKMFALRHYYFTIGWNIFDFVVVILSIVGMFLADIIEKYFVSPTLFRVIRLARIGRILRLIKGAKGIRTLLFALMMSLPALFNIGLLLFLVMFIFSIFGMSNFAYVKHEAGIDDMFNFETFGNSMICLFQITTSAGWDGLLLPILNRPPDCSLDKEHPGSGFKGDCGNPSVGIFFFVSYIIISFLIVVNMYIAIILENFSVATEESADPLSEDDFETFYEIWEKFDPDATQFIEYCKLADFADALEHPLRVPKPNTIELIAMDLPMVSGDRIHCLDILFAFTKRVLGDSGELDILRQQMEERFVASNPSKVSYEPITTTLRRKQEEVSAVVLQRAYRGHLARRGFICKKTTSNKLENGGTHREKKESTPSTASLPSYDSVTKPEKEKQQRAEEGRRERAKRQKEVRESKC
T3 sequence (Q14524 other isoform, or with tags, fused parts or gaps): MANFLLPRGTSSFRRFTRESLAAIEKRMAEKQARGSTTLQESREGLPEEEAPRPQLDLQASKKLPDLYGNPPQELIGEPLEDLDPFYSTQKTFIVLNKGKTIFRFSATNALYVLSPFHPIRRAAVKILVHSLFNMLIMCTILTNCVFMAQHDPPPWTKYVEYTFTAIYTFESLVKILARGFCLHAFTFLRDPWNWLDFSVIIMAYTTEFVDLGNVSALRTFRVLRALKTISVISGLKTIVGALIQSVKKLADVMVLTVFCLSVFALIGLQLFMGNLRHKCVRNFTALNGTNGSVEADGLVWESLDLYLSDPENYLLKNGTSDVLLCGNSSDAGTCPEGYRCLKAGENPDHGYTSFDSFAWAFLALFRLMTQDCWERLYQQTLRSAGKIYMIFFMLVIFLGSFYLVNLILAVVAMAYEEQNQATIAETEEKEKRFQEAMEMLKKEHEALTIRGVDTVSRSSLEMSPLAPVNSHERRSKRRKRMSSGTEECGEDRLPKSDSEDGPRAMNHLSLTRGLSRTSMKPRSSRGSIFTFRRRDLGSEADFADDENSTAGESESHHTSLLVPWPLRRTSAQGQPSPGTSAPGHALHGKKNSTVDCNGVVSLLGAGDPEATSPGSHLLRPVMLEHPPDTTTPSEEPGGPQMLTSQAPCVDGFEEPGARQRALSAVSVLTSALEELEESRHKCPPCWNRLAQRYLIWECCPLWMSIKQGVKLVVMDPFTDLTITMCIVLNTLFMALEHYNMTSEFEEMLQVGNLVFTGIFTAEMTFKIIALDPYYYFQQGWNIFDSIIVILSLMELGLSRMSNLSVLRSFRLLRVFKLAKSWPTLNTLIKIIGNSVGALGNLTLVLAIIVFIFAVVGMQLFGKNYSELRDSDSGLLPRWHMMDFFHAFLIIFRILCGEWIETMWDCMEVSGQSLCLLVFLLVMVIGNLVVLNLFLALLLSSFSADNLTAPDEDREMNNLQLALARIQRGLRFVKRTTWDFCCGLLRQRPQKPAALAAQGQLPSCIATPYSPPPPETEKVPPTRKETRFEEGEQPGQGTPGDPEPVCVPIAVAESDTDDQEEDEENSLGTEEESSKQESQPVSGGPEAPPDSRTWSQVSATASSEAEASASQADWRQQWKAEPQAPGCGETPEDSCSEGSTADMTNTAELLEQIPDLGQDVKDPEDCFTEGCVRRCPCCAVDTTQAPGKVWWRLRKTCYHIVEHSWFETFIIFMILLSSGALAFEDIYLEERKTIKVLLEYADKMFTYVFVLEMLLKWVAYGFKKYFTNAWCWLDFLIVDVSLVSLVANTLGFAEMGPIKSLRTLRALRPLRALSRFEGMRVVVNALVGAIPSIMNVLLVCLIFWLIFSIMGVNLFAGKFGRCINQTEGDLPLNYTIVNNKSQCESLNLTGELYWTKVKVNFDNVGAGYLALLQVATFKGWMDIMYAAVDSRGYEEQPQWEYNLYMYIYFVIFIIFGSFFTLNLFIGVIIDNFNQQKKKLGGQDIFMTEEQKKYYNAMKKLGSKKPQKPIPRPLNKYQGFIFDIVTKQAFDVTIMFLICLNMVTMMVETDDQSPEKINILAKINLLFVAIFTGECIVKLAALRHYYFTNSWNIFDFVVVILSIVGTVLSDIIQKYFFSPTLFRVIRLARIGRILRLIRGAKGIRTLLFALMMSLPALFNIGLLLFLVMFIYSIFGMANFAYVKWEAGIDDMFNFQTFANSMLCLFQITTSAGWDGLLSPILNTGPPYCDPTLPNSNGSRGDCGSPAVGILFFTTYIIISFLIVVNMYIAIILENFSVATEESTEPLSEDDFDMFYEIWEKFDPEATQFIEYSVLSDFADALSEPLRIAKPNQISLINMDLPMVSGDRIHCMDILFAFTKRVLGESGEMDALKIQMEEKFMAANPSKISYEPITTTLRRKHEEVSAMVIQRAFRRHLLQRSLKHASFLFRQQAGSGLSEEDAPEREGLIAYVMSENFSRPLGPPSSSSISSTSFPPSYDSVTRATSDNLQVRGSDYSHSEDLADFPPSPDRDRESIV

IC50 (NaV1.6 [2]) | SMILES | IC50 (NaV1.1 [1]) | IC50 (NaV1.6 [2]; [10]) | IC50 (NaV1.5 [3]) | IC50 (NaV1.1 [4]) | IC50 (NaV1.6 [5]) | IC50 (NaV1.5 [6]) | IC50 at 1 h (NaV1.5 [7]) | IC50 (NaV1.5 [8]) | IC50 (NaV1.5 [9])
– | O=S(=O)(Nc1cscn1)c1ccc(O[C@@H]2C[C@H]3CC[C@@H](C2)N3Cc2cc(Cl)ccc2F)c(Cl)c1 [Example 316, 3-chloro-4-(((1R,3s,5S)-8-(5-chloro-2-fluorobenzyl)-8-azabicyclo[3.2.1]octan-3-yl)oxy)-N-(thiazol-4-yl)benzenesulfonamide formate] | 2.8 µM | 3.9 µM | 5.09 µM | – | – | – | – | – | –
– | O=S(=O)(Nc1nccs1)c1cc(Cl)c(O[C@@H]2C[C@H]3CC[C@@H](C2)N3Cc2ccccc2)cc1F [Example 17, 4-(((1R,3s,5S)-8-benzyl-8-azabicyclo[3.2.1]octan-3-yl)oxy)-5-chloro-2-fluoro-N-(thiazol-2-yl)benzenesulfonamide] | > 30 µM | 0.392 µM | > 30 µM | > 10 µM | 0.155 µM | – | – | – | –
– | Cc1cccc(CN2CC[C@H](N(C)c3cc(F)c(S(=O)(=O)Nc4ncns4)c(F)c3C)C2)n1 [Example 296, 2,2,2-trifluoroacetate] | > 30 µM | 0.01 µM | – | – | 0.002 µM | > 30 µM | – | – | –
– | C[C@@H]1[C@H](N(C)c2cc(F)c(S(=O)(=O)Nc3cscn3)cc2Cl)CCN1Cc1ccccc1 (racemic) [Example 309, rac-4-(((2R,3R)-1-benzyl-2-methylpyrrolidin-3-yl)(methyl)amino)-5-chloro-2-fluoro-N-(thiazol-4-yl)benzenesulfonamide] | – | – | – | – | – | – | 7.35 µM | – | –
– | Cc1c(N(C)[C@H]2CCN(Cc3ccccc3)C2)cc(F)c(S(=O)(=O)Nc2cscn2)c1F [Example 103, (S)-4-((1-benzylpyrrolidin-3-yl)(methyl)amino)-2,6-difluoro-3-methyl-N-(thiazol-4-yl)benzenesulfonamide 2,2,2-trifluoroacetate] | 28.5 µM | 0.061 µM | – | 40.9 µM | 0.017 µM | – | – | > 10 µM | 28.2 µM
– | O=S(=O)(Nc1cscn1)c1ccc(O[C@@H]2C[C@H]3CC[C@@H](C2)N3Cc2ccc(F)c(Cl)c2)c(Cl)c1 [Example 319, 3-chloro-4-(((1R,3s,5S)-8-(3-chloro-4-fluorobenzyl)-8-azabicyclo[3.2.1]octan-3-yl)oxy)-N-(thiazol-4-yl)benzenesulfonamide formate] | 3.69 µM | 3.32 µM | 2.48 µM | – | – | – | – | – | –
– | CN(c1ccc(S(=O)(=O)Nc2ncns2)cc1Cl)[C@H]1CCN(Cc2ccccc2)C1 [Example 29, (S)-4-((1-benzylpyrrolidin-3-yl)(methyl)amino)-3-chloro-N-(1,2,4-thiadiazol-5-yl)benzenesulfonamide hydrochloride salt] | > 30 µM | 0.244 µM | – | > 10 µM | 0.06 µM | – | – | > 10 µM | 29.5 µM
– | CN(c1cc(F)c(S(=O)(=O)Nc2cscn2)cc1Cl)[C@H]1CCN(Cc2ccccc2)C1 [Example 38, (S)-4-((1-benzylpyrrolidin-3-yl)(methyl)amino)-5-chloro-2-fluoro-N-(thiazol-4-yl)benzenesulfonamide 2,2,2-trifluoroacetate] | 17.9 µM | 1.94 µM | – | > 10 µM | 0.803 µM | – | – | > 30 µM | 26.3 µM
– | O=S(=O)(Nc1nccs1)c1ccc(N[C@@H]2CCN(Cc3ccccc3F)C2)c(Cl)c1 [Example 71, (R)-3-chloro-4-((1-(2-fluorobenzyl)pyrrolidin-3-yl)amino)-N-(thiazol-2-yl)benzenesulfonamide] | 3.35 µM | 1.26 µM | – | – | – | – | – | 0.863 µM | 9.27 µM
1.87 µM | Cc1ccc(CN2CC[C@H](N(C)c3cc(F)c(S(=O)(=O)Nc4cscn4)cc3Cl)C2)s1 [Example 189, (S)-5-chloro-2-fluoro-4-(methyl(1-((5-methylthiophen-2-yl)methyl)pyrrolidin-3-yl)amino)-N-(thiazol-4-yl)benzene-sulfonamide formate] | 7.38 µM | – | – | – | – | 16.6 µM | – | – | –
– | O=S(=O)(Nc1cscn1)c1ccc(O[C@@H]2C[C@H]3CC[C@@H](C2)N3Cc2ccccc2)c(Cl)c1 [Example 318, 4-(((1R,3s,5S)-8-benzyl-8-azabicyclo[3.2.1]octan-3-yl)oxy)-3-chloro-N-(thiazol-4-yl)benzenesulfonamide] | 13.8 µM | 5.46 µM | 17.4 µM | > 10 µM | 1.15 µM | – | – | – | –
1.61 µM | CN(c1cc(F)c(S(=O)(=O)Nc2cscn2)cc1Cl)[C@H]1CCN(Cc2cccc3cccnc23)C1 [Example 170, (S)-5-chloro-2-fluoro-4-(methyl(1-(quinolin-8-ylmethyl)-pyrrolidin-3-yl)amino)-N-(thiazol-4-yl)benzene-sulfonamide formate] | 11.3 µM | – | – | – | – | 21.2 µM | – | – | –
– | C[C@H](c1ccccc1)N1CCC(N(C)c2cc(F)c(S(=O)(=O)Nc3cscn3)cc2Cl)CC1 [Example 280, (R)-5-chloro-2-fluoro-4-(methyl(1-(1-phenylethyl)piperidin-4-yl)amino)-N-(thiazol-4-yl)benzenesulfonamide formate] | 17.4 µM | 0.228 µM | 27.1 µM | – | – | – | – | – | –
0.74 µM | COc1cccnc1CN1CC[C@H](N(C)c2cc(F)c(S(=O)(=O)Nc3cscn3)cc2Cl)C1 [Example 176, (S)-5-chloro-2-fluoro-4-((1-((3-methoxypyridin-2-yl)methyl)pyrrolidin-3-yl)(methyl)amino)-N-(thiazol-4-yl)benzene-sulfonamide formate] | > 30 µM | – | – | – | – | > 30 µM | – | – | –
4.89 µM | CN(c1cc(F)c(S(=O)(=O)Nc2cscn2)cc1Cl)[C@H]1CCN(CCc2ccccc2)C1 [Example 179, (S)-5-chloro-2-fluoro-4-(methyl(1-phenethylpyrrolidin-3-yl)amino)-N-(thiazol-4-yl)benzene-sulfonamide formate] | 6.91 µM | – | – | – | – | 20.4 µM | – | – | –
– | Cc1c(N(C)[C@H]2CCN(Cc3ccccc3)C2)cc(F)c(S(=O)(=O)Nc2cccc(F)n2)c1F [Example 298, (S)-4-((1-benzylpyrrolidin-3-yl)(methyl)amino)-2,6-difluoro-N-(6-fluoropyridin-2-yl)-3-methylbenzenesulfonamide formate] | 26 µM | 0.079 µM | – | > 10 µM | 0.043 µM | – | – | > 10 µM | > 30 µM
– | CN(c1cc(F)c(S(=O)(=O)Nc2nccs2)cc1Cl)C1CCN(Cc2ccccc2)CC1 [Example 53, 4-((1-benzylpiperidin-4-yl)(methyl)amino)-5-chloro-2-fluoro-N-(thiazol-2-yl)benzenesulfonamide] | 7.41 µM | 0.601 µM | 24.5 µM | – | – | – | – | – | –
– | CN(c1ccc(S(=O)(=O)Nc2cscn2)cc1Cl)[C@H]1CCN(Cc2cc(Cl)ccc2F)C1 [Example 254, (S)-3-chloro-4-((1-(5-chloro-2-fluorobenzyl)pyrrolidin-3-yl)(methyl)amino)-N-(thiazol-4-yl)benzenesulfonamide formate] | 2.32 µM | 1.16 µM | – | – | – | – | – | 17 µM | 0.962 µM
– | Cc1cc(S(=O)(=O)Nc2cscn2)c(F)cc1N(C)C1CCN([C@H](C)c2ccccc2)CC1 [Example 281, (R)-2-fluoro-5-methyl-4-(methyl(1-(1-phenylethyl)piperidin-4-yl)amino)-N-(thiazol-4-yl)benzenesulfonamide 2,2,2-trifluoroacetate] | 14.6 µM | 0.021 µM | 13.1 µM | – | – | – | – | – | –

SMILES | IC50 (NaV1.6 [2]) | IC50 (NaV1.1 [1]) | IC50 (NaV1.6 [2]; [10]) | IC50 (NaV1.5 [3]) | IC50 (NaV1.1 [4]) | IC50 (NaV1.6 [5]) | IC50 (NaV1.5 [6]) | IC50 at 1 h (NaV1.5 [7]) | IC50 (NaV1.5 [8]) | IC50 (NaV1.5 [9])
C[C@@H](c1ccccc1)N1CCC(Oc2ccc(S(=O)(=O)Nc3nccs3)cc2Cl)CC1 [Example 58, (S)-3-chloro-4-((1-(1-phenylethyl)piperidin-4-yl)oxy)-N-(thiazol-2-yl)benzenesulfonamide 2,2,2-trifluoroacetate] | 0.402 µM | – | – | – | – | 0.093 µM | 5.58 µM | – | – | –
Cc1cccc(CN2CC[C@H](N(C)c3cc(F)c(S(=O)(=O)Nc4ncns4)c(F)c3Cl)C2)n1 [Example 297, (S)-3-chloro-2,6-difluoro-4-(methyl (1-((6-methylpyridin-2-yl)methyl)pyrrolidin-3-yl)amino)-N-(1,2,4-thiadiazol-5-yl)benzenesulfonamide 2,2,2-trifluoroacetate] | 0.062 µM | > 30 µM | – | – | – | 0.012 µM | > 30 µM | – | – | –
CN(c1ccc(S(=O)(=O)Nc2ncns2)cc1Cl)[C@H]1CCN(Cc2cc(F)cc(F)c2)C1 [Example 327, (S)-3-chloro-4-((1-(3,5-difluorobenzyl)pyrrolidin-3-yl)(methyl)amino)-N-(1,2,4-thiadiazol-5-yl)benzenesulfonamide formate] | 1.04 µM | 17.3 µM | – | – | – | – | > 30 µM | – | – | –
